For experiment [1], the target named is T1, RXRα (Homo sapiens, UniProt P19793).
T1 construct: expressed in transfected cells
T1 sequence (P19793 1-462): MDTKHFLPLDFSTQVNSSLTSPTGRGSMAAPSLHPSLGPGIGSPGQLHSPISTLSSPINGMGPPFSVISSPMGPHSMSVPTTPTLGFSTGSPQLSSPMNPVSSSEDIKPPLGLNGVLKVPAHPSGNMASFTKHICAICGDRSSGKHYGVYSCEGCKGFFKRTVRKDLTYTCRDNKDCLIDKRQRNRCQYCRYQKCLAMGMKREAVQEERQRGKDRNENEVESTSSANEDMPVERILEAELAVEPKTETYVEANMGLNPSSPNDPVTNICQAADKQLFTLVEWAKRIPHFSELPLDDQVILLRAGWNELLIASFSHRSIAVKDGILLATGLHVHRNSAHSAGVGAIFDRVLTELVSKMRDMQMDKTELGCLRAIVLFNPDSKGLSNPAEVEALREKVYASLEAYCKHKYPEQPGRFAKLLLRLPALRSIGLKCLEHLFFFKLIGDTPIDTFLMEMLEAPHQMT
Description: ligand binding assay, RXRα. Conditions: for Ki: read-out: RXR Bind Ki α. A digest of the protocol:
(§1)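 Binding of compounds to several retinoid receptor subtypes was measured. Results are given as Ki values in nanomolar concentration, derived per Cheng et al.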

Another experiment deals with T2, RXRβ (UniProt P28704).
T2 sequence (P28704 1-520): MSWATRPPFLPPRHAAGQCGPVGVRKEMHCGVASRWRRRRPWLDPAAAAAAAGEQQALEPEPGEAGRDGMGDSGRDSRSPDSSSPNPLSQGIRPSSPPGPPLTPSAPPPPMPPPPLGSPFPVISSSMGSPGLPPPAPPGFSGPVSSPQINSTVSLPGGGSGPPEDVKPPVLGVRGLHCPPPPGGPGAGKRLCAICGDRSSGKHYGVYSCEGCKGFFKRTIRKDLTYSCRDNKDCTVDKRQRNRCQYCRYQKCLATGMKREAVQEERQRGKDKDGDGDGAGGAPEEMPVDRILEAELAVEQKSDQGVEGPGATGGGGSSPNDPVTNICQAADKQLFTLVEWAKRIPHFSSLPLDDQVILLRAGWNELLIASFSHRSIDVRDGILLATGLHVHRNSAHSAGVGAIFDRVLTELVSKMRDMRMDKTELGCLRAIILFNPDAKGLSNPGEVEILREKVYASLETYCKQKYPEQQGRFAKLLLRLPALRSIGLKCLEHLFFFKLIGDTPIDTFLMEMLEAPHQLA
Description: holoreceptor transactivation assay, RXRβ. Conditions: for EC50: holoreceptor transactivation, read-out: RXR Trans. EC50 β; for RXR Trans. efficacy (number in parentheses) β: percentage compared to the standard compound. Type of experiment: cell-based. An outline of the steps: (§2)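 RXR activation measured in holoreceptor transactivation assays; RAR subtypes in chimeric receptor transactivation assays. Values are EC50 in nM, with efficacy as percentage of maximal activity of a reference cyclopropyl-pentadienoic acid RXR agonist.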

Experiment [2] deals with T1, RXRα. Description: holoreceptor transactivation assay, RXRα. The settings on record: for EC50: holoreceptor transactivation, read-out: RXR Trans. EC50 α; for Emax: percentage compared to the standard compound, read-out: RXR Trans. efficacy (number in parentheses) α. The format is cell-based. A digest of the protocol:
as §2

In another experiment the target is T3, RARβ (Homo sapiens, UniProt P10826).
T3 sequence (P10826 1-455): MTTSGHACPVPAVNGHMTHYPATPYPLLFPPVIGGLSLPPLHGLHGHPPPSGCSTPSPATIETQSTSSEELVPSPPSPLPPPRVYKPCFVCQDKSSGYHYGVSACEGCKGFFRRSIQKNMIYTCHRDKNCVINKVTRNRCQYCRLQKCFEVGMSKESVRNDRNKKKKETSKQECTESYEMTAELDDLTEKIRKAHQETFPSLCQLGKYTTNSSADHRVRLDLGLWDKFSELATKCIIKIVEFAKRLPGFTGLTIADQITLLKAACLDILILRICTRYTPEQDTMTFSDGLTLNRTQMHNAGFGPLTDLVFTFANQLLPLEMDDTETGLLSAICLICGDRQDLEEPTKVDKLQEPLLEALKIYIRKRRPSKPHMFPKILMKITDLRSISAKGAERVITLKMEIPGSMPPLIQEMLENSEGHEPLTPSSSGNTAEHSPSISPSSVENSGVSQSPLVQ
Description: ligand binding assay, RARβ. Conditions: for Ki: read-out: RAR Bind. Ki β. An outline of the steps:
as §1

The record followed here is US6887896B1, “7-[(7-Alkoxy)-chrom-3-en-6-yl]-heptatrienoic acid and 7-[(3-alkoxy)-5,6-dihydronaphthalen-2-yl]-heptatrienoic acid derivatives having serum glucose reducing activity” (Allergan, Inc., priority 2003, dated 2005).

On to `CCOc1cc2c(cc1\C(C)=C(F)/C=C/C(C)=C/C(=O)O)C(C(C)(C)C)=CCC2(C)C` [Compound A-82, (2E,4E,6E)-6-Fluoro-3-(4,4-dimethyl-6-ethoxy-1-tert-butyl-3,4 dihydronaphthalen-7-yl)-3-methyl-2,4,6-octa-trienoic acid], for which the inhibitory constant (Ki) on RXRα [1] amounted to 2 nM. At RXRβ, the concentration for a half-maximal effect (EC50) came out at 4 nM and the “RXR Trans. efficacy (number in parentheses) β” value (“RXR Trans. efficacy” below) came to 41%. For the same compound, on RXRα [2], the EC50 came to 1 nM and the Emax was 43%. Also, on RARβ, the Ki amounted to 400 nM.
Consider `CC(/C=C/C(F)=C(/C)c1cc2c(c(Cl)c1OC(C)C)OC(C)(C)C=C2C(C)C)=C\C(=O)O` [Compound 174], for which, at RXRα [1], the Ki was 29 nM. Moreover, at RXRβ, the EC50 came to 527 nM and the “RXR Trans. efficacy” value is 12%. In addition, at RXRα [2], the EC50 came to 59 nM and the Emax came to 8%. The Ki at RARβ stood at 1300 nM.
Consider `CCOc1c(\C(CC)=C(F)/C=C/C(C)=C/C(=O)O)cc2c(c1Br)C(C)(C)CC=C2C(C)C` [Compound A-170, (2E,4E,6E)-7-(4-Bromo-3-ethoxy-8-isopropyl-5,5-dimethyl-5,6-dihydro-naphthalen-2-yl)-6-fluoro-3-methyl-nona-2,4,6-trienoic acid], for which the Kd on RXRα [1] (Table 9 (Formula F), read-out: RXR α Kd) came out at 2 nM. Also, on RXRβ, the 50% effective concentration (EC50) was 1 nM and the “RXR Trans. efficacy” value was determined as 59%. At RXRα [2], the EC50 was determined as 0.2 nM and the Emax was determined as 60%. Besides, the dissociation constant (Kd) on RARβ (Table 9 (Formula F), read-out: RAR β Kd) is 56 nM.
`CCOc1cc2c(cc1\C(C)=C/C=C/C(C)=C/C(=O)O)C(C(C)(C)C)=CCC2(C)C` [Compound A-17, 7-(8-tert-Butyl-3-ethyloxy-5,5-dimethyl-5,6-dihydronaphthalen-2-yl)-3-methyl-octa-2E,4E,6Z-trienoic acid]: the Ki on RXRα [1] came to 2.4 nM. For the same compound, at RXRβ, the EC50 came out at 3.2 nM and the “RXR Trans. efficacy” value turned out to be 72%. At RXRα [2], the concentration for a half-maximal effect (EC50) was found to be 0.6 nM and the Emax amounted to 85%. Also, the inhibition constant Ki on RARβ is 401 nM.
